Source: patent publication US9096560B2, “5-heterocyclylalkyl-3-hydroxy-2-phenylcyclopent-2-enones as herbicides” (Syngenta Limited, priority 2008, dated 2015)

Tests used:
Type in all cases: in vivo
[1] = tested on: Digitaria sanguinalis (DIGSA); assay: Example A pre-emergence herbicidal test, DIGSA; conditions: rate 500 g/ha, evaluated 19 or 20 days after spraying
Method: (§1) Seeds of a variety of test species were sown in standard soil in pots. After cultivation for one day (pre-emergence) or after 10 days cultivation (post-emergence) under controlled conditions in a glasshouse, the plants were sprayed with an aqueous spray solution derived from the formulation of the technical active ingredient in 0.6 ml acetone and 45 ml formulation solution containing 10.6% Emulsogen EL (Registry number 61791-12-6), 42.2% N-methylpyrrolidone, 42.2% dipropylene glycol monomethyl ether (Registry number 34590-94-8) and 0.2% X-77 (Registry number 11097-66-8). The test plants were then grown in a greenhouse under optimum conditions until, 14 or 15 days later for post-emergence and 19 or 20 days for pre-emergence, the test was evaluated (100=total damage to plant; 0=no damage to plant). Alopecurus myosuroides (ALOMY), Avena fatua (AVEFA), Lolium perenne (LOLPE), Setaria faberi (SETFA), Digitaria sanguinalis (DIGSA), Echinochloa crus-galli (ECHCG) Pre-Emergence Activity

Avena fatua (AVEFA) [2] = assay: Example A pre-emergence herbicidal test, AVEFA; conditions: rate 500 g/ha, evaluated 19 or 20 days after spraying
Method: as §1

Lolium perenne (LOLPE) [3] = assay: Example A pre-emergence herbicidal test, LOLPE; conditions: rate 500 g/ha, evaluated 19 or 20 days after spraying
Method: as §1

[4] = tested on: Alopecurus myosuroides (ALOMY); assay: Example A post-emergence herbicidal test, ALOMY; conditions: rate 125 g/ha, evaluated 14 or 15 days after spraying
Method: as §1, with “Post-Emergence” for “Pre-Emergence”

[5] = tested on: Echinochloa crus-galli (ECHCG); assay: Example A post-emergence herbicidal test, ECHCG; conditions: rate 125 g/ha, evaluated 14 or 15 days after spraying
Method: as §1, with “Post-Emergence” for “Pre-Emergence”

[6] = tested on: Alopecurus myosuroides (ALOMY); assay: Example A pre-emergence herbicidal test, ALOMY; conditions: rate 500 g/ha, evaluated 19 or 20 days after spraying
Method: as §1

Setaria faberi (SETFA) [7] = assay: Example A post-emergence herbicidal test, SETFA; conditions: rate 125 g/ha, evaluated 14 or 15 days after spraying
Method: as §1, with “Post-Emergence” for “Pre-Emergence”

Setaria faberi (SETFA) [8] = assay: Example A pre-emergence herbicidal test, SETFA; conditions: rate 500 g/ha, evaluated 19 or 20 days after spraying
Method: as §1

Avena fatua (AVEFA) [9] = assay: Example A post-emergence herbicidal test, AVEFA; conditions: rate 125 g/ha, evaluated 14 or 15 days after spraying
Method: as §1, with “Post-Emergence” for “Pre-Emergence”

[10] = tested on: Echinochloa crus-galli (ECHCG); assay: Example A pre-emergence herbicidal test, ECHCG; conditions: rate 500 g/ha, evaluated 19 or 20 days after spraying
Method: as §1

[11] = tested on: Digitaria sanguinalis (DIGSA); assay: Example A post-emergence herbicidal test, DIGSA; conditions: rate 125 g/ha, evaluated 14 or 15 days after spraying
Method: as §1, with “Post-Emergence” for “Pre-Emergence”

Lolium perenne (LOLPE) [12] = assay: Example A post-emergence herbicidal test, LOLPE; conditions: rate 125 g/ha, evaluated 14 or 15 days after spraying
Method: as §1, with “Post-Emergence” for “Pre-Emergence”

Compound | Pre-Emergence Activity DIGSA (100=total damage to plant; 0=no damage to plant) [1] | Pre-Emergence Activity AVEFA (100=total damage to plant; 0=no damage to plant) (Avena fatua (AVEFA) [2]) | Pre-Emergence Activity LOLPE (100=total damage to plant; 0=no damage to plant) (Lolium perenne (LOLPE) [3]) | Post-Emergence Activity ALOMY (100=total damage to plant; 0=no damage to plant) [4] | Post-Emergence Activity ECHCG (100=total damage to plant; 0=no damage to plant) [5] | Pre-Emergence Activity ALOMY (100=total damage to plant; 0=no damage to plant) [6] | Post-Emergence Activity SETFA (100=total damage to plant; 0=no damage to plant) (Setaria faberi (SETFA) [7]) | Pre-Emergence Activity SETFA (100=total damage to plant; 0=no damage to plant) (Setaria faberi (SETFA) [8]) | Post-Emergence Activity AVEFA (100=total damage to plant; 0=no damage to plant) (Avena fatua (AVEFA) [9]) | Pre-Emergence Activity ECHCG (100=total damage to plant; 0=no damage to plant) [10] | Post-Emergence Activity DIGSA (100=total damage to plant; 0=no damage to plant) [11] | Post-Emergence Activity LOLPE (100=total damage to plant; 0=no damage to plant) (Lolium perenne (LOLPE) [12])
CCc1cc(C)cc(CC)c1C1C(=O)CC(CC2CCOCC2)C1=O (stereo not drawn) [Compound T1] | 100 | 90 | 100 | 100 | 100 | 100 | 70 | 70 | 90 | 80 | 100 | 100
CCc1ccc(-c2ccc(Cl)cc2)cc1C1C(=O)CC(CC2CCOCC2)C1=O (stereo not drawn) [Compound T2] | 80 | 10 | 90 | 80 | 100 | 70 | 100 | 70 | 40 | 70 | 100 | 20
